{"source": "patent US11612601B1", "about": "“Targeting epidermal growth factor to treat vascular calcification” (THE FLORIDA INTERNATIONAL UNIVERSITY BOARD OF TRUSTEES, priority 2022, dated 2023)", "key": {"Osteoblasts (hFOB 1.19)": {"system": "Osteoblasts (hFOB 1.19)", "assay": "Matrix vesicles from osteoblast cultures: CAV1 and TNAP activity", "format": "cell-based, human", "details": "OS + 2.5 μM", "method": "Osteoblasts (from human fetus, hFOB 1.19, ATCC, CRL-11372) were cultured and grown in DMEM containing 10% v/v bovine calf serum and 1% v/v penicillin-streptomycin. Osteoblasts (passage 4-6) were harvested using 0.25% trypsin-EDTA solution (Caisson Labs, TRL01), seeded with a density of 5,200 cell.cm^−2, and incubated for 24 hours at 37° C. and 5% CO2 with controlled humidity. The cells were treated in three groups of control, OS, and OS supplemented with tyrphostin AG1478 (2.5 μM) for 21 days and media changed every three days. […] Similar to the VSMC experiments, EV-free media were added to the cultures on days 6, 13, and 20, and collected 24 hours later on days 7, 14, and 21. Collected media were centrifuged at 1,000×g for 5 min to remove cell debris. EVs were isolated using the ultracentrifugation at 100,000×g for 1 hour.\nFor EV TNAP activity measurement, after ultracentrifugation at 100,000×g for 1 hour, the pellets were re-suspended in 120 μL buffer assay. […]\nTo quantify the total protein, the membranes were stained using 2% w/v Ponceau stain (Alfa Aesar, AAJ6074409) for 20 min, followed by one wash with 5% acetic acid and milliQ water for 5 min. After imaging, the intensity of each lane was measured in ImageJ for total protein normalization. […] The protein bands were visualized with Odyssey CLx scanner (Li-Cor), and quantified using Image Studio Lite software (Li-Cor)."}, "[1]": {"system": "Primary human coronary artery vascular smooth muscle cells", "assay": "VSMC osteogenic marker gene expression (qRT-PCR)", "format": "cell-based", "details": "OS + 2.5 μM vs OS, 14 days", "method": "Primary human coronary artery vascular smooth muscle cells, (VSMCs, ATCC, PCS-100-021) were cultured using vascular smooth muscle cell media and growth kit (ATCC, PCS-100-042). VSMCs (passage 4-6) were harvested using 0.05% trypsin-EDTA solution (Caisson Labs, TRL04) and seeded with a density of 26,320 cells.cm^-2 and incubated for 72 hours at 37° C., 5% CO2 with controlled humidity prior to treatment. […] OS media were supplemented with 10 mM β-glycerophosphate (Sigma, 13408-09-8), 0.1 mM L-ascorbic acid (Sigma, 113170-55-1), and 10 nM dexamethasone (Sigma, 50-02-2). To assess the role of EGFR inhibition, tyrphostin AG1478 (Millipore Sigma, T4182) was dissolved in vehicle (DMSO:Methanol, 1:1) and added to OS media to a final concentration of 2.5 μM. An equal volume of vehicle was added to the control and OS groups. […] On days 6, 13, 20, and 27 the media were replaced by an extracellular-vesicle-free (EV-free) media (ultracentrifuged for 15 hours at 100,000×g at 4° C. to remove background EVs common in the serum). After 24 hours, conditioned media were collected on days 7, 14, 21, and 28. […] To perform the quantitative real time polymerase chain reaction (qRT-PCR), Power SYBR Green RNA-to-CT 1-Step Kit (Applied Biosystems, 4391178) was used. […] The relative gene expression levels were calculated using comparative CT method, considering control groups as the reference. […]"}}, "data": [{"smiles": "COc1cc2ncnc(Nc3cccc(Cl)c3)c2cc1OC", "note": "[AG1478, tyrphostin AG1478]", "values": [{"measurement": "CAV1 protein on matrix vesicles released by osteoblasts", "setting": "Osteoblasts (hFOB 1.19); compared to control, days 14 and 21", "value": "lower levels"}, {"measurement": "TNAP activity of matrix vesicles released by osteoblasts", "setting": "Osteoblasts (hFOB 1.19); days 7, 14, 21", "value": "significantly increased"}, {"measurement": "Gene expression of osteogenic marker ALPL in VSMCs", "setting": "[1]; p=0.1", "value": "no significant differences"}, {"measurement": "Gene expression of osteogenic marker RUNX2 in VSMCs", "setting": "[1]; p=0.42", "value": "no significant differences"}]}]}
